Experimental findings from ChEMBL document CHEMBL4196062, “Trypanothione reductase inhibition and anti-leishmanial activity of all-hydrocarbon stapled α-helical peptides with improved proteolytic stability” (Eur J Med Chem, 2018) are described below.

The structures appear in SMILES notation. pEC50, pIC50: −log10 of the molar value. The source made the active and inactive calls. No cut-off for these calls is given here. Positions of bridges follow the written chain, without caps; N, C: chain ends. Non-standard residues stand in square brackets, D forms with d. Residues, ends and D or L forms follow the SMILES beside them. *: point of attachment. X1 = O=C(O)c1ccc(NC(=S)*)cc1-c1c2ccc(=O)cc-2oc2cc(O)ccc12; R5 = C=CCCC[C@@](C)(N)C(=O)O; S5 = C=CCCC[C@](C)(N)C(=O)O; Nle = CCCC[C@H](N)C(=O)O; AEEA = NCCOCCOCC(=O)O A value given as a limit tells only on which side of the number the result lay.

For series [1], the target named is T1, Trypanothione reductase (Leishmania infantum, UniProt A4HSF7). Put plainly: Inhibition of recombinant Leishmania infantum trypanothione reductase using T[S]2 as substrate preincubated for 5 mins followed by substrate and NADPH addition measured for 1 hr.
T1 sequence (A4HSF7 whole entry): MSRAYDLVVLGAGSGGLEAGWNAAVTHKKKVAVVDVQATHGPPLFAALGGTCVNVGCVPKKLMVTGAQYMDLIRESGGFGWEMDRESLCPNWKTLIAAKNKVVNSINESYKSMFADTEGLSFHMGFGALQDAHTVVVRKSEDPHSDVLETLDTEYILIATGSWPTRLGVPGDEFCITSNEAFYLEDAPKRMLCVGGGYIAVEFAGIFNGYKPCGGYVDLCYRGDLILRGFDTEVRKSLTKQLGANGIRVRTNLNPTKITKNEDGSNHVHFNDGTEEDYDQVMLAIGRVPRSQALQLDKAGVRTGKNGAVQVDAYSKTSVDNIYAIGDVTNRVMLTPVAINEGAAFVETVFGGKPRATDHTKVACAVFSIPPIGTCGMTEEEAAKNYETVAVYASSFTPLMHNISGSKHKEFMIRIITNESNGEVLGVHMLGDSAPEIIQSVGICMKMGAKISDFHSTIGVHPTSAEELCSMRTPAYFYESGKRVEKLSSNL
Series [2] concerns the target T1, Trypanothione reductase. The series is described as follows: Inhibition of dimerization of HIS/FLAG tagged Leishmania infantum trypanothione reductase incubated for 16 hrs by ELISA. In general terms: An ELISA detects its analyte on a solid surface through an enzyme-linked reagent.
Series [3] concerns the target T2, Proteinase K (Engyodontium album, UniProt P06873). The series is described as follows: Drug metabolism assessed as Tritirachium album proteinase K-mediated compound degradation by measuring half life at 100 uM measured up to 360 mins by HPLC method. Type of series: ADME. The conditions noted are these: parengyodontium album.
The target in series [4] is T3, Glutathione reductase, mitochondrial (Homo sapiens) (UniProt P00390).
T3 sequence (whole entry): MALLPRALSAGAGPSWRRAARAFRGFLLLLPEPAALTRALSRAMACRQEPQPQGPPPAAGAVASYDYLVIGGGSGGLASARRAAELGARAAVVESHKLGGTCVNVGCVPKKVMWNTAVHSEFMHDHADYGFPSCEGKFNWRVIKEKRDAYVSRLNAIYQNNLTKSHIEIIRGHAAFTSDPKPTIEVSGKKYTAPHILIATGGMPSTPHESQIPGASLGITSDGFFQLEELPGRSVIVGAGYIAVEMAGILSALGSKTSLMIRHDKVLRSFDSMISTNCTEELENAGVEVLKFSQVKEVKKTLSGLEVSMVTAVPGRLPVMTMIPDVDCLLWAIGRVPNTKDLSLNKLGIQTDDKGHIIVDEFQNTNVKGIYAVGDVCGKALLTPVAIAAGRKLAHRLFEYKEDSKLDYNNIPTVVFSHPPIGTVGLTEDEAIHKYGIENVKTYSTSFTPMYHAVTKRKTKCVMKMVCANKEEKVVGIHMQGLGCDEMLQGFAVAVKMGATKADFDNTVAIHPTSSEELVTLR
Put plainly: Activation of recombinant human glutathione reductase using GSSG as substrate preincubated for 5 mins followed by substrate and NADPH addition.

The target in series [5] is T2, Proteinase K. The series is described as follows: Drug metabolism assessed as Tritirachium album proteinase K-mediated compound degradation by measuring half life at 100 uM measured up to 480 mins by HPLC method. The conditions noted are these: parengyodontium album. It counts as ADME.
Series [6] relates to Leishmania infantum. The series is described as follows: Antileishmanial activity against Leishmania infantum MCAN/ES/89/IPZ229/1/89 promastigotes at 25 uM after 24 hrs by propidium iodide staining based fluorescence microscopic analysis. It counts as functional, organism-based.
Series [7] concerns Leishmania infantum. The series is described as follows: Antileishmanial activity against Leishmania infantum MCAN/ES/89/IPZ229/1/89 axenic amastigotes infected in human THP1 cells at 25 uM after 24 hrs by propidium iodide staining based fluorescence microscopic analysis. Type of series: functional, organism-based.
Series [8] concerns the target Trypanothione reductase (Leishmania infantum) (UniProt A4HSF7). Put plainly: Inhibition of dimerization of HIS/FLAG tagged Leishmania infantum trypanothione reductase assessed as dimer levels at 9.375 uM incubated for 16 hrs by ELISA. Further details: scale not given: the % may be the effect or the level left.
The target is the same in series [9]. The series is described as follows: Inhibition of dimerization of HIS/FLAG tagged Leishmania infantum trypanothione reductase assessed as dimer levels at 18.75 uM incubated for 16 hrs by ELISA. Further details: scale not given: the % may be the effect or the level left.
For series [10] the target is unchanged. The series is described as follows: Inhibition of dimerization of HIS/FLAG tagged Leishmania infantum trypanothione reductase assessed as dimer levels at 37.5 uM incubated for 16 hrs by ELISA. Further details: scale not given: the % may be the effect or the level left.
Series [11] shares this target. Put plainly: Inhibition of dimerization of HIS/FLAG tagged Leishmania infantum trypanothione reductase assessed as dimer levels at 75 uM incubated for 16 hrs by ELISA. Further details: scale not given: the % may be the effect or the level left.
The test system of series [12] is Leishmania infantum. The series is described as follows: Antileishmanial activity against Leishmania infantum MCAN/ES/89/IPZ229/1/89 promastigotes after 24 hrs by propidium iodide staining based fluorescence microscopic analysis. Type of series: functional, organism-based. The conditions noted are these: MCAN/ES/89/IPZ229/1/89, 24 h.
Series [13] concerns Leishmania infantum. Put plainly: Antileishmanial activity against Leishmania infantum MCAN/ES/89/IPZ229/1/89 axenic amastigotes infected in human THP1 cells after 24 hrs by propidium iodide staining based fluorescence microscopic analysis. The conditions noted are these: MCAN/ES/89/IPZ229/1/89, THP-1, 24 h. It counts as functional, organism-based.
For the next series, the system named is THP-1. The series is described as follows: Cytotoxicity against human THP1 cells assessed as reduction in cell viability after 24 hrs by propidium iodide staining based fluorescence microscopic analysis. The conditions noted are these: THP-1, 24 h.

Chain of Trypanothione reductase (Leishmania infantum) (A4HSF7 as listed by the source): as the sequence (A4HSF7 whole entry) above
T2 sequence (P06873 whole entry): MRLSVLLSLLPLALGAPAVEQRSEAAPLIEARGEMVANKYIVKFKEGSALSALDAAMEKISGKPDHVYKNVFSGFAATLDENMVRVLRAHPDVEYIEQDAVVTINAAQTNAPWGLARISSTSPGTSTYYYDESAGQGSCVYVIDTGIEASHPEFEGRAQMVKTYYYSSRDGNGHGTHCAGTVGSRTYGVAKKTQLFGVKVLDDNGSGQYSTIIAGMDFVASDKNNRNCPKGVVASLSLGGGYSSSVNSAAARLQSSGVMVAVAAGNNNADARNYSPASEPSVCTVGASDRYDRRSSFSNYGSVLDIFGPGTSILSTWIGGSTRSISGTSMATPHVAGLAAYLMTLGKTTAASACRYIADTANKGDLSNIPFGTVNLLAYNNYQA

Usually pIC50 stands for the negative decadic logarithm of the IC50, by convention in mol/L. The term half-life denotes how long it takes for the measured level to halve. Turning to `CCCC[C@H](NC(=O)[C@H](CC(C)C)NC(=O)[C@H](CCCC)NC(=O)[C@H](CO)NC(=O)[C@@H](NC(=O)CNC(=O)[C@@H](NC(=O)[C@H](CO)NC(=O)[C@H](CCC(N)=O)NC(=O)[C@@H](NC(=O)[C@@H](NC(=O)[C@H](CC(C)C)NC(=O)[C@@H]1CCCN1C(C)=O)[C@@H](C)CC)[C@@H](C)CC)C(C)C)[C@@H](C)CC)C(N)=O`, the pIC50 at Trypanothione reductase [1] is 5.92; at Trypanothione reductase [2] (read-out: IC50) it was 4.87. The half-life at 100 µM at Proteinase K [3] was 0.375 to 0.383 h.
As for `CCCC[C@@H](NC(=O)[C@H](CC(C)C)NC(=O)[C@@H](CCCC)NC(=O)[C@H](CO)NC(=O)[C@@H](NC(=O)CNC(=O)C1(C)CCCC=CCCC[C@@](C)(NC(=O)[C@@H](NC(=O)[C@H](CC(C)C)NC(=O)[C@@H]2CCCN2C(C)=O)[C@@H](C)CC)C(=O)N[C@@H](CCC(N)=O)C(=O)N[C@@H](CO)C(=O)N[C@@H](C(C)C)C(=O)N1)[C@@H](C)CC)C(N)=O` (some centres undefined), the pIC50 at Trypanothione reductase [1] was 5.19. Also, the outcome in [4] was Active. In addition, the half-life at 100 µM on Proteinase K [5] came to 3.53 h. The outcome with Leishmania infantum [6] and in the series with Leishmania infantum [7] was inactive. The Activity in series [8] is 140%; in [9] it was 144%; in series [10], 169%; in series [11], 168%.
Take `CCCC[C@@H](NC(=O)[C@H](CC(C)C)NC(=O)[C@@H](CCCC)NC(=O)[C@H](CO)NC(=O)[C@@H](NC(=O)CNC(=O)[C@@H](NC(=O)[C@H](CO)NC(=O)[C@H](CCC(N)=O)NC(=O)[C@@H](NC(=O)[C@@H](NC(=O)[C@H](CC(C)C)NC(=O)[C@@H]1CCCN1C(C)=O)[C@@H](C)CC)[C@@H](C)CC)C(C)C)[C@@H](C)CC)C(N)=O`: the Activity in series [8] turned out to be 59%; in series [9], 56%; in series [10], 18%; in [11], 2%.
Consider `C=CCCC[C@@](C)(NC(=O)[C@@H](NC(=O)[C@H](CO)NC(=O)[C@H](CCC(N)=O)NC(=O)[C@@](C)(CCCC=C)NC(=O)[C@@H](NC(=O)[C@H](CCCCN)NC(=O)[C@@H]1CCCN1C(C)=O)[C@@H](C)CC)C(C)C)C(=O)N[C@H](C(=O)N[C@@H](CO)C(=O)NCC(=O)N[C@@H](CCCCN)C(=O)NCC(N)=O)[C@@H](C)CC` (Ac-PKI[R5]QSV[R5]ISGKG-NH2), for which, at Trypanothione reductase [1], the pIC50 was 4.90. Moreover, the outcome in the series on Leishmania infantum [6] and in the series on Leishmania infantum [7] was inactive. Also, the Activity in series [8] turned out to be 125%; in [9], 145%; in series [10], 175%; in series [11], 184%.
Consider `C=CCCC[C@](C)(NC(=O)[C@H](CO)NC(=O)[C@H](CCC(N)=O)NC(=O)[C@@H](NC(=O)[C@](C)(CCCC=C)NC(=O)[C@H](CCCCN)NC(=O)[C@@H]1CCCN1C(C)=O)[C@@H](C)CC)C(=O)NCC(=O)N[C@H](C(=O)N[C@@H](CO)C(=O)N[C@@H](CCCC)C(=O)N[C@@H](CCCCN)C(=O)N[C@@H](CCCC)C(N)=O)[C@@H](C)CC` (Ac-PK[S5]IQS[S5]GIS[Nle]K[Nle]-NH2), for which the pIC50 at Trypanothione reductase [1] was 4.55. For the same molecule, the IC50 entry against Trypanothione reductase [2] was “Not Active”. Moreover, the outcome in the series on Leishmania infantum [6] and in the series with Leishmania infantum [7] was inactive.
As a reminder, the pEC50 is the negative decadic logarithm of the EC50, by convention in mol/L. As to `CC[C@H](C)[C@H](NC(=O)[C@]1(C)CCCC=CCCC[C@](C)(NC(=O)[C@H](CCCCN)NC(=O)[C@@H]2CCCN2C(=O)[C@H](CCCNC(=N)N)NC(=O)[C@H](CCCNC(=N)N)NC(=O)[C@H](CCCNC(=N)N)NC(=O)[C@H](CCCNC(=N)N)NC(=O)[C@H](CCCNC(=N)N)NC(=O)[C@H](CCCNC(=N)N)NC(=O)[C@H](CCCNC(=N)N)NC(=O)[C@H](CCCNC(=N)N)NC(=O)[C@H](CCCNC(=N)N)NC(C)=O)C(=O)N[C@@H]([C@@H](C)CC)C(=O)N[C@@H](CCC(N)=O)C(=O)N[C@@H](CO)C(=O)NCC(=O)N1)C(=O)N[C@@H](CO)C(=O)NCC(=O)N[C@@H](CC(C)C)C(=O)NCC(N)=O` (Ac-RRRRRRRRRPK[S5]IQSG[S5]ISGLG-NH2; staple 12-17), the results for the pEC50 with Leishmania infantum [12], in the series on Leishmania infantum [13] and with THP-1 were 5.71, 5.67 and 6.48, respectively.
On to `CCCC[C@H](NC(=O)[C@H](CC(C)C)NC(=O)[C@H](CCCC)NC(=O)[C@H](CO)NC(=O)[C@@H](NC(=O)CNC(=O)[C@]1(C)CCCC=CCCC[C@@](C)(NC(=O)[C@H](CC(C)C)NC(=O)[C@@H]2CCCN2C(C)=O)C(=O)N[C@@H]([C@@H](C)CC)C(=O)N[C@@H](CCC(N)=O)C(=O)N[C@@H](CO)C(=O)N1)[C@@H](C)CC)C(N)=O` (stereo in doubt; 2a) [listing 1 of 2 here], for which, on Trypanothione reductase [1], the pIC50 was 5.17. Further, on Proteinase K [5], the half-life at 100 µM amounted to 6.97 h.
On to `CCCC[C@H](NC(=O)[C@H](CC(C)C)NC(=O)[C@H](CCCC)NC(=O)[C@H](CO)NC(=O)[C@@H](NC(=O)CNC(=O)[C@]1(C)CCCC=CCCC[C@@](C)(NC(=O)[C@H](CC(C)C)NC(=O)[C@@H]2CCCN2C(C)=O)C(=O)N[C@@H]([C@@H](C)CC)C(=O)N[C@@H](CCC(N)=O)C(=O)N[C@@H](CO)C(=O)N1)[C@@H](C)CC)C(N)=O` (stereo in doubt; 2a) [listing 2 of 2 here], for which the result in series [4] was Active. The outcome in the series with Leishmania infantum [6] and with Leishmania infantum [7] was inactive. For the same molecule, the Activity in [8] stood at 114%; in series [9], 130%; in [10] it was 153%; in series [11] it was 181%.
Consider `CCCC[C@H](NC(=O)[C@H](CC(C)C)NC(=O)[C@H](CCCC)NC(=O)[C@H](CO)NC(=O)[C@@H](NC(=O)CNC(=O)[C@]1(C)CCCC=CCCC[C@@](C)(NC(=O)[C@H](CC(C)C)NC(=O)[C@@H]2CCCN2C(C)=O)C(=O)N[C@@H]([C@@H](C)CC)C(=O)N[C@@H](CCC(N)=O)C(=O)N[C@@H](CO)C(=O)N1)[C@@H](C)CC)C(N)=O` (stereo in doubt; 2b), for which, on Trypanothione reductase [1], the pIC50 was under 4.60. Also, on Trypanothione reductase [2], the IC50 entry is on record as “Not Active”.
As for `CC[C@H](C)[C@H](NC(=O)[C@]1(C)CCCC=CCCC[C@](C)(NC(=O)[C@H](CCCCN)NC(=O)[C@@H]2CCCN2C(=O)COCCOCCNC(=S)Nc2ccc(C(=O)O)c(-c3c4ccc(=O)cc-4oc4cc(O)ccc34)c2)C(=O)N[C@@H]([C@@H](C)CC)C(=O)N[C@@H](CCC(N)=O)C(=O)N[C@@H](CO)C(=O)NCC(=O)N1)C(=O)N[C@@H](CO)C(=O)NCC(=O)N[C@@H](CC(C)C)C(=O)NCC(N)=O` ({X1-AEEA}-PK[S5]IQSG[S5]ISGLG-NH2; staple 3-8), the result with Leishmania infantum [6] and in the series with Leishmania infantum [7] was inactive.
`CCCCCCCCCCCCCCCCCCOCC(COP(=O)([O-])OCC[N+](C)(C)C)OC` (centres undefined) [EDELFOSINE]: the pEC50 with Leishmania infantum [12] was 5.05; with Leishmania infantum [13], 6.22; with THP-1, 6.00.
Take `CCCCCCCCCCCCCCCCOP(=O)([O-])OCC[N+](C)(C)C` [MILTEFOSINE]: the pEC50 was 4.32 with Leishmania infantum [12], 5.70 in the series with Leishmania infantum [13] and 4.72 in the series on THP-1.
